Results on one compound are retold here after ChEMBL document CHEMBL2074154, “Modulation of the function of P-glycoprotein by estramustine” (J Natl Cancer Inst, 1994).

For the data set, the target named is ATP-dependent translocase ABCB1 (Homo sapiens, UniProt P08183). The data set can be described thus: TP_TRANSPORTER: increase in Vinblastine intracellular accumulation (Vinblastine: 1 uM, Estramustine: 50 uM) in SKVLB 1 cells. It is filed as functional, cell-based. The settings on record: skvlb 1, 50 µM.
Chain of ATP-dependent translocase ABCB1 (P08183 whole entry): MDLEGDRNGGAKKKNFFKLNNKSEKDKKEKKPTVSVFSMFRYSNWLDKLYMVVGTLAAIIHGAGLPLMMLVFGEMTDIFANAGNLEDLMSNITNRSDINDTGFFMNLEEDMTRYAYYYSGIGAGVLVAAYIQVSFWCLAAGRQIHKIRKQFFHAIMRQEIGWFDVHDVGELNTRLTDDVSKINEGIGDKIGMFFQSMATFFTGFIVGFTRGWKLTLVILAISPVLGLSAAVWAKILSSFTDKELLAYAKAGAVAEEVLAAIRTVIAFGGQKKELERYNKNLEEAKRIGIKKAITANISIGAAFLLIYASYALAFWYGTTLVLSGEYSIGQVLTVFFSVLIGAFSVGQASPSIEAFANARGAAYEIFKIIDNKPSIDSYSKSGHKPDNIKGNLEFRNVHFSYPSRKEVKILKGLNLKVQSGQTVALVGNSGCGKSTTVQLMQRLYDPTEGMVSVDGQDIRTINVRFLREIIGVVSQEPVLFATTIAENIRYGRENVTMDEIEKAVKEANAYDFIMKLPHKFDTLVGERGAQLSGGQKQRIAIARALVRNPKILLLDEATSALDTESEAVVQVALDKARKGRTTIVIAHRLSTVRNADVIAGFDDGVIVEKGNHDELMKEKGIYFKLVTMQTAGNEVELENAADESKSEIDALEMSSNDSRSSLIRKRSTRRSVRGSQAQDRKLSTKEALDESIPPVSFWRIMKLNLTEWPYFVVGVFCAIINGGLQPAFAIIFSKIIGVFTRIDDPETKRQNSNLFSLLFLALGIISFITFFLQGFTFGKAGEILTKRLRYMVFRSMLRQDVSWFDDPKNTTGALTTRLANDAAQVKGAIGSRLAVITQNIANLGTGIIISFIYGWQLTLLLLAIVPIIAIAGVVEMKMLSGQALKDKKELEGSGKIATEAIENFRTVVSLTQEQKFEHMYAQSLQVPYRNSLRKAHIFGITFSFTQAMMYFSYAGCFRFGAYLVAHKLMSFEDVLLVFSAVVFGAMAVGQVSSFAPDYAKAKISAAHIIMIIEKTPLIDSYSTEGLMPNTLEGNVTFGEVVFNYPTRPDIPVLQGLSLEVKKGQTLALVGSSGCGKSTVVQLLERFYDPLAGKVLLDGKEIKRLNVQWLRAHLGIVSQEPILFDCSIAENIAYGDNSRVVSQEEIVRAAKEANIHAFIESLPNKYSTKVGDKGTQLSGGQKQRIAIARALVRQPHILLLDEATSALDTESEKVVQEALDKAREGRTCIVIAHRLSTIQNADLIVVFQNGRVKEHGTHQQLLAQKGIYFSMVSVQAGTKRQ

On to `C[C@]12CC[C@@H]3c4ccc(OC(=O)N(CCCl)CCCl)cc4CC[C@H]3[C@@H]1CC[C@@H]2O` [ESTRAMUSTINE], for which the Activity result is “inhibitor [+]”.
